Legend:
[1] = system: A2780 ovarian cancer cells; test: SRB assay, 48 h, cytostasis, A2780; format: cell-based; details: for A2780 Max. Inh. (%): ND = not detected; for cytostatic activity on A2780 cells in SRB assay (in words): 48 h treatment
Protocol: (§1) The compounds were tested between 0.001694 and 33.3333 µM, using a 4-hour-long MTT test to assess rapid toxicity and a 48-hour-long SRB assay to assess the long-term effects of the inhibition of proliferation (cytostasis). The MTT assay assesses the activity of mitochondrial complex I and detects rapid, direct toxicity, as well as indicating apoptosis and necrosis. The SRB assay measures the total protein content that is proportional to cell numbers; therefore, the assay can detect changes in cell numbers and can thus be used as a readout for cell proliferation. The SRB assay was performed after 48 h of treatment (with the exception of L428 cells, which were tested for 96 h due to their slower proliferation rate). In this setting, the SRB assay informs us of long-term changes to cell proliferation. We assessed the maximal inhibition within that concentration range, and descriptive statistics were performed. We performed a one-way ANOVA, followed by the Kruskal–Wallis test, regardless of the normal or non-normal distribution of the data. Due to the large number of significance values, the results of the significance calculations are provided in an Excel spreadsheet at https://figshare.com/s/28d14597d5041f08eb08 (accessed on 6 January 2022), among other primary data of the study. Where possible, nonlinear regression was performed on the curves to determine the IC50 values ((inhibitor) vs. response—variable slope (four parameters) method with Graphpad v8.0.1). […] In Table 5, we added the IC50 values that we determined for a set of 4 active ruthenium half-sandwich complexes we identified previously, to be used in subsequent structure-activity relationship (SAR) analyses.
(§2) A2780 cells were cultured in RMPI 1640 medium, supplemented with 10% fetal calf serum, 2 mM glutamine, and 1% penicillin-streptomycin.
(§3) The assay was performed similarly to the method used in [73]. Cells were seeded in 96-well plates the day before the assay. Cells were treated with the compounds for 48 h, with the exception of L428, where 96 h of treatment was applied. Cells were fixed with 10% trichloroacetic acid (TCA). Fixed cells were washed in distilled water 3 times, followed by staining with SRB (0.4 m/V% dissolved in 1% acetic acid) for 10 min. The stained cells were washed in 1% acetic acid 5 times; the acetic acid was removed, and the cells were left to dry. Protein-bound SRB was released by adding 100 µL 10 mM Tris base. Plates were measured in a plate photometer (Thermo Scientific Multiscan GO spectrophotometer, Waltham, MA, USA) at 540 nm. On each plate, wells were designed to contain untreated cells. In calculations, the readings for these wells were considered as 1 and all readings were expressed relative to these values.
(§4) Statistical analysis was performed using the 8.0.1 version of Graphpad Prism. Values were tested for normal distribution, using the d’Agostino and Pearson normality test. When necessary, values were log-normalized or were normalized using the Box-Cox normalization method or using a two-step transformation, as indicated in the figure captions. Nonlinear regression was performed using the built-in “[Inhibitor] vs. Response—Variable slope (four parameters), least-square fit” utility of Graphpad, yielding the IC50 and Hill slope values.

[2] = Determination of the distribution coefficients (logD), n-octanol/PBS; format: physicochemical; details: n-octanol / PBS pH = 7.40, rt
Protocol: Before starting the experiments, n-octanol was saturated with an aqueous PBS solution (pH = 7.40) and vice versa. A solution of the appropriate complex (approximately 0.2–0.3 mg) in a mixture of 2.50 mL pre-saturated n-octanol and 2.50 mL pre-saturated PBS buffer was made, and the resulting mixture was then vigorously stirred for 3 days at rt. Based on our previous NMR stability experiments, this time is long enough to reach equilibrium among the various ionic complex species. Due to the lipophilic/hydrophilic features of the complexes, those with benzoyl protection could primarily be found in the n-octanol, while the complexes with O-peracetylated and O-deprotected ligands were in the aqueous PBS phase. The corresponding separated solution was centrifuged (ScanSpeed 406G instrument, 4000 RPM for 5 min) and the absorption of the ”stock solution” was determined (VWR UV-1600PC Spectrophotometer, 270–420 nm). Then, 2.00 mL of the stock solution was vigorously stirred with 16.00 mL of pre-saturated n-octanol or PBS solution. After one day had passed, the phases were separated, centrifuged, and the absorption of the solution was measured again. From the absorption difference of the stock solutions, the distribution coefficient (D) was determined using previously described formulae [71].

[3] = system: ID8 ovarian cancer cell line; test: MTT reduction assay, 4 h, rapid toxicity, ID8; format: cell-based; details: MTT assay, 4 h treatment; ND = not detected or cannot be calculated
Protocol: as §1
(§5) ID8 cells were cultured in a high-glucose DMEM (4.5 g/L glucose) medium, supplemented with 4% fetal calf serum, 2 mM glutamine, 1% penicillin-streptomycin, and 1% ITS supplement (I3146).
(§6) The MTT reduction assay measures the activity of mitochondrial complex I and can be used to detect apoptosis and necrosis. The assay was performed similarly to the method used in [72]. Briefly, cells were plated in 96-well plates the day before the assay. Cells were treated with the compounds for 4 h, then MTT was added at 0.5 mg/mL final concentration and the cells were incubated at 37 °C in a cell incubator. The culture media were removed and the reduced MTT dye was dissolved in dimethyl-sulfoxide (DMSO) and plates were measured in a plate photometer (Thermo Scientific Multiscan GO spectrophotometer, Waltham, MA, USA) at 540 nm. On each plate, wells were designed to contain untreated/vehicle-treated cells. In the calculations, the readings for these wells were considered as 1 and all readings were expressed relative to these values.

[4] = system: Capan2, a pancreatic adenocarcinoma cell line; test: SRB assay, 48 h, cytostasis, Capan2; format: cell-based; details: SRB assay, ND = not detected
Description: We turned next to assessing whether the cytostatic activity of Os-3, Os-4, Os-5, Os-6 and Ir-6 complexes is specific for ovarian cancer cell lines or if they may be active on other cell lines. To that end, we tested the complexes on another carcinoma cell line (Capan2, a pancreatic adenocarcinoma cell line), on a sarcoma cell line (Saos, an osteosarcoma cell line) and on a lymphoma cell line (L428, a Hodgkin’s lymphoma cell line).
Capan2 cells were maintained in MEM, 10% fetal bovine serum, 1% penicillin/streptomycin, and 2 mM glutamine.
as §3, §4
Here, 1.5 × 10^3 Capan2, 3 × 10^3 Saos cells and 10^4 L428 cells were plated onto 96-well plates. Capan2 and Saos cells were treated with the compounds in the concentrations indicated for 48 h for an SRB assay. L428 cells were treated with the compounds in the concentrations indicated for 96 h, then cells were counted using conventional microscopy and a Burker chamber. Data are represented as average ± SD, from three biological replicates; individual assays were performed in duplicate. Values were normalized for vehicle-treated cells; the absorbance for vehicle-treated cells is equal to 1. A one-way ANOVA, followed by a Kruskal–Wallis test, was performed individually for each compound. The results of the statistical analysis are presented in an Excel spreadsheet at https://figshare.com/s/28d14597d5041f08eb08 (accessed on 6 January 2022). Nonlinear regression was performed on the data.

[5] = system: ID8 ovarian cancer cell line; test: SRB assay, 48 h, cytostasis, ID8; format: cell-based; details: for ID8 Max. Inh. (%): SRB assay, 48 h, ND = not detected; for cytostatic activity on ID8 cells, SRB assay (in words): 48 h treatment
Protocol: as §1, §5, §3, §4

[6] = system: A2780 ovarian cancer cells; test: MTT reduction assay, 4 h, rapid toxicity, A2780; format: cell-based; details: 4 h treatment
Protocol: as §1, §2, §6

Cc1c(C)c(C)[c-](C)c1C.F[P-](F)(F)(F)(F)F.O=C(OCC1OC(c2noc(-c3ccccn3)n2)C(OC(=O)c2ccccc2)C(OC(=O)c2ccccc2)C1OC(=O)c1ccccc1)c1ccccc1.[Cl][Ir+2] (mixture of isomers) [Ir-1]
A2780 Max. Inh. (%) ([1]; SRB assay, 48 h): 35.13% | LogD [2]: 2.87

Cc1c(C)c(C)[c-](C)c1C.F[P-](F)(F)(F)(F)F.OCC1OC(c2noc(-c3ccccn3)n2)C(O)C(O)C1O.[Cl][Ir+2] (mixture of isomers) [Ir-2]
A2780 Max. Inh. (%) ([1]; SRB assay, 48 h): 36.38% | LogD [2]: −1.15

Cc1c(C)c(C)[c-](C)c1C.F[P-](F)(F)(F)(F)F.O=C(OCC1OC(c2nnc(-c3ccccn3)o2)C(OC(=O)c2ccccc2)C(OC(=O)c2ccccc2)C1OC(=O)c1ccccc1)c1ccccc1.[Cl][Ir+2] (mixture of isomers) [Ir-3]
Maximum Inhibition (%) ID8 [3]: 26.11% | cytostatic activity on A2780 cells in SRB assay (in words) [1]: mild | A2780 Max. Inh. (%) ([1]; SRB assay, 48 h): 69.25% | Capan2 Max. Inh. (%) [4]: 27.62% | LogD [2]: 1.46

Cc1c(C)c(C)[c-](C)c1C.F[P-](F)(F)(F)(F)F.O=C(OCC1OC(c2nnc(-c3ccccn3)o2)C(OC(=O)c2ccccc2)C(OC(=O)c2ccccc2)C1OC(=O)c1ccccc1)c1ccccc1.[Cl][Ir+2] (mixture of isomers) [Ir-4]
A2780 Max. Inh. (%) ([1]; SRB assay, 48 h): 32.45% | LogD [2]: 1.46

Cc1c(C)c(C)[c-](C)c1C.F[P-](F)(F)(F)(F)F.O=C(OC1COC(c2nnc(-c3ccccn3)o2)C(OC(=O)c2ccccc2)C1OC(=O)c1ccccc1)c1ccccc1.[Cl][Ir+2] (mixture of isomers) [Ir-5]
A2780 Max. Inh. (%) ([1]; SRB assay, 48 h): 45.45% | ID8 Max. Inh. (%) [5]: 53.15% | LogD [2]: 1.80

CC(=O)OCC1OC(c2nnc(-c3ccccn3)o2)C(OC(C)=O)C(OC(C)=O)C1OC(C)=O.Cc1c(C)c(C)[c-](C)c1C.F[P-](F)(F)(F)(F)F.[Cl][Ir+2] (mixture of isomers) [Ir-7]
A2780 Max. Inh. (%) ([1]; SRB assay, 48 h): 26.91% | LogD [2]: −0.75

Cc1c(C)c(C)[c-](C)c1C.F[P-](F)(F)(F)(F)F.OCC1OC(c2nnc(-c3ccccn3)o2)C(O)C(O)C1O.[Cl][Ir+2] (mixture of isomers) [Ir-8]
LogD [2]: −1.60

Cc1c(C)c(C)[c-](C)c1C.F[P-](F)(F)(F)(F)F.OCC1OC(c2nnc(-c3ccccn3)o2)C(O)C(O)C1O.[Cl][Ir+2] (mixture of isomers) [Ir-9]
A2780 Max. Inh. (%) ([1]; SRB assay, 48 h): 21.29% | LogD [2]: −1.47

Cc1c(C)c(C)[c-](C)c1C.F[P-](F)(F)(F)(F)F.OC1COC(c2nnc(-c3ccccn3)o2)C(O)C1O.[Cl][Ir+2] (mixture of isomers) [Ir-10]
A2780 Max. Inh. (%) ([1]; SRB assay, 48 h): 23.12% | LogD [2]: −1.56

CC(=O)OCC1OC(n2cc(-c3ccccn3)nn2)C(OC(C)=O)C(OC(C)=O)C1OC(C)=O.Cc1c(C)c(C)[c-](C)c1C.F[P-](F)(F)(F)(F)F.[Cl][Ir+2] (mixture of isomers) [Ir-11]
cytostatic activity on A2780 cells in SRB assay (in words) [1]: biologically inactive | A2780 Max. Inh. (%) ([1]; SRB assay, 48 h): 20.26%

Cc1c(C)c(C)[c-](C)c1C.F[P-](F)(F)(F)(F)F.OCC1OC(n2cc(-c3ccccn3)nn2)C(O)C(O)C1O.[Cl][Ir+2] (mixture of isomers) [Ir-12]
cytostatic activity on A2780 cells in SRB assay (in words) [1]: biologically inactive | A2780 Max. Inh. (%) ([1]; SRB assay, 48 h): 19.11%

Cc1c(C)c(C)[c-](C)c1C.F[P-](F)(F)(F)(F)F.O=C(OCC1OC(c2nnc(-c3ccccn3)o2)C(OC(=O)c2ccccc2)C(OC(=O)c2ccccc2)C1OC(=O)c1ccccc1)c1ccccc1.[Cl][Rh+2] (mixture of isomers) [Rh-3]
A2780 Max. Inh. (%) ([1]; SRB assay, 48 h): 39.86% | LogD [2]: 1.60

Cc1c(C)c(C)[c-](C)c1C.F[P-](F)(F)(F)(F)F.O=C(OCC1OC(c2nnc(-c3ccccn3)o2)C(OC(=O)c2ccccc2)C(OC(=O)c2ccccc2)C1OC(=O)c1ccccc1)c1ccccc1.[Cl][Rh+2] (mixture of isomers) [Rh-4]
A2780 Max. Inh. (%) ([1]; SRB assay, 48 h): 35.30% | LogD [2]: 1.64

Cc1c(C)c(C)[c-](C)c1C.F[P-](F)(F)(F)(F)F.O=C(OC1COC(c2nnc(-c3ccccn3)o2)C(OC(=O)c2ccccc2)C1OC(=O)c1ccccc1)c1ccccc1.[Cl][Rh+2] (mixture of isomers) [Rh-5]
Maximum Inhibition (%) ID8 [3]: 21.87% | A2780 Max. Inh. (%) ([1]; SRB assay, 48 h): 51.28% | cytostatic activity on ID8 cells, SRB assay (in words) [5]: mild cytostatic activity | ID8 Max. Inh. (%) [5]: 75.25% | LogD [2]: 1.8

Cc1c(C)c(C)[c-](C)c1C.F[P-](F)(F)(F)(F)F.O=C(OCC1OC(n2cc(-c3ccccn3)nn2)C(OC(=O)c2ccccc2)C(OC(=O)c2ccccc2)C1OC(=O)c1ccccc1)c1ccccc1.[Cl][Rh+2] (mixture of isomers) [Rh-6]
Maximum Inhibition (%) ID8 [3]: 28.28% | IC50 ([1]; SRB assay, 48 h): 25.3 µM | A2780 Max. Inh. (%) ([1]; SRB assay, 48 h): 59% | cytostatic activity on ID8 cells, SRB assay (in words) [5]: mild cytostatic activity | ID8 Max. Inh. (%) [5]: 43.70% | LogD [2]: 1.85

O=C(OC[C@H]1O[C@@H](c2noc(-c3ccccn3)n2)[C@H](OC(=O)c2ccccc2)[C@@H](OC(=O)c2ccccc2)[C@@H]1OC(=O)c1ccccc1)c1ccccc1 [Complex L-1, 3-(2′,3′,4′,6′-Tetra-O-benzoyl-β-D-glucopyranosyl)-5-(pyridin-2-yl)-1,2,4-oxadiazole]
toxicity on A2780 cells in short-term MTT assay (in words) [6]: practically inactive | cytostatic activity on A2780 cells in SRB assay (in words) [1]: practically inactive

dichloro(η^6-p-cymene)osmium(II) dimer [Os-dimer]
cytostatic activity on A2780 cells in SRB assay (in words) [1]: inactive | cytostatic activity on ID8 cells, SRB assay (in words) [5]: inactive
